Data on one molecule can be found in patent publication US20020141966A1, “Compositions for treatment of malignant effusions, and methods of making and using the same” (priority 2000, published 2002).

The subject of experiment [1] is human colon carcinoma cell line HT29. Kind of experiment: Survival study in HT29 colon cancer xenograft mouse model. The class given is in vivo, SCID mice. To be noted: Paclitaxel 40 mg/kg, IP on day 4 post tumor cell implantation. As to the method:
PACLIMER was provided as in powder and suspended in the vehicle (0.1% Tween80 in normal saline) just before administration. Paclitaxel was purchased from Bristol-Myers Squib Co., which was provided as a solution at a concentration of 6 mg/ml. The paclitaxel solution was diluted to 1 mg/ml with 0.9% sodium chloride just before use.
The human colon carcinoma cell line HT29 was used to set up the colon cancer xenograft mouse model. SCID mice were injected i.p. with 10 million cells. This generally results in death from the tumor metastasis and ascites around 30 days after tumor implantation. HT29 cells growing as a monolayer were harvested with trypsin and washed with PBS. The packed cells were resuspended in PBS (10 million cells per ml PBS). 48 SCID mice (C.B.17/Icr SCID, 8-10 weeks of age) were injected i.p. with 1 ml of the HT29 cell suspension (10 million cells for each mouse). 4 days after tumor implantation, the animals were grouped randomly. […]
For the ascites study, PACLIMER was to be given when obvious ascites was found in the mice. […] On 1, 5, and 10 days after treatment, 4 mice in each group was sacrificed at each time point and the ascites volumes were measured. […]

The subject of experiment [2] is malignant effusions associated with non-small cell lung cancer. To be noted: cited from earlier work.
Where [3] appears, read: single 125 mg/m2 dose diluted in saline, intracavitary.

As for `CC(=O)O[C@H]1C(=O)[C@@]2(C)[C@H]([C@H](OC(=O)c3ccccc3)[C@]3(O)C[C@H](OC(=O)[C@H](O)[C@@H](NC(=O)c4ccccc4)c4ccccc4)C(C)=C1C3(C)C)[C@]1(OC(C)=O)CO[C@@H]1C[C@@H]2O` [Paclitaxel, paclitaxel], in experiment [1], the “Median Survival” value amounted to 44 days. Moreover, in experiment [2] (setting [3]), the complete response rate was 28.6% and the total response rate is 92.9%. Moreover, the “patients with total tumor mass reduced by more than 50%” value in experiment [2] (single 125 mg/m2 dose, following the treatment) is “one patient out of fourteen”.
